{"source": "patent US20240418626A1", "about": "“METHOD, DEVICE, AND SYSTEM FOR CELL IDENTIFICATION” (Ruixin (Fuzhou) Technology Co., Ltd., priority 2021, published 2024)", "type_in_all_cases": "cell-based", "key": {"[1]": {"test_system": "A549 cells", "experiment": "Cell vitality by MTT assay in A549 cells treated with 5-FU", "protocol": "(§1) Specifically, in the present embodiment, non-small cell lung cancer A549 cells are cultured on multiple cellular traction force detection devices, and then are treated with various doses of cell proliferation inhibitor 5-fluorouracil (5-FU). Subsequently, the cellular traction forces at different time are monitored by using the cellular identification system described in the twentieth embodiment. Cell proliferation and cytotoxicity are monitored using the CCK-8 kit, with cell vitality measured by the MTT assay serving as a control group, yielding the data for FIGS. 11B and 11C."}, "[2]": {"test_system": "A549 cells", "experiment": "Cell vitality reflected by cellular traction force in A549 cells treated with 5-FU", "conditions": "for time of significant decrease in cellular traction force: FIG. 11C", "protocol": "as §1"}, "[3]": {"test_system": "Breast cancer cells MCF-7 tumor cell aggregates", "experiment": "5-Fu drug sensitivity of tumor cell aggregates on the cellular traction force detection device", "conditions": "MCF-7 aggregates, 200 μM, cultured for one day, FIGS. 13A and 13B", "protocol": "S1, Generation of tumor cell aggregates: FN 50 μg/mL is coated on the top of the micro-/nano-pillars of the cellular traction force detection device and sterilized with UV light for 30 minutes. Breast cancer cells MCF-7 (approximately 1×10^5 to 9×10^5 cells) are seeded on the surface of the micro-/nano-pillars of the cellular traction force detection device (number of micro-/nano-pillars not limited) and then cultured in 3dGRO™ Spheroid Medium (S3077) for more than three days to guide the formation of tumor cell aggregates.\nS2, Applying the generated tumor cell aggregates to 5-Fu drug sensitivity experiments: 200 μM of 5-Fu is added to the tumor cell aggregates and cultured for one day. In the experiment, cellular traction force detection devices with tumor cell aggregates (along with the culture medium) before and after the addition of 5-Fu are monitored using the information acquisition unit (CCD sensor) within the cellular identification device to capture light reflection signals."}, "[4]": {"conditions": "various doses of 5-FU, FIGS. 11B and 11C"}}}
{"smiles": "O=c1[nH]cc(F)c(=O)[nH]1", "note": "[5-FU, 5-fluorouracil]", "values": [{"measurement": "changes in cell vitality measured by the MTT assay", "setting": "[1]; after 12 hours of treatment, FIG. 11C", "value": "not noticeable"}, {"measurement": "cell vitality measured by the traditional MTT assay", "setting": "[1]; [4]", "value": "dose-dependent decrease"}, {"measurement": "time of significant decrease in cellular traction force", "setting": "[2]; 0.5 μM treatment dose", "value": 6, "unit": "h"}, {"measurement": "time of significant decrease in cellular traction force", "setting": "[2]; 1 μM treatment dose", "value": 3, "unit": "h"}, {"measurement": "cellular vitality as reflected by traction forces compared to control group DMSO", "setting": "[2]; different doses, treatment for 24 hours, FIG. 11B", "value": "decreases more significantly"}, {"measurement": "cell vitality reflected by cellular traction forces", "setting": "[2]; [4]", "value": "dose-dependent decrease"}, {"measurement": "reflection signals of tumor cell aggregates after treatment", "setting": "[3]", "value": "significantly weaken"}]}
